Data reported in patent US4668682A, “2-Phenylalkyl-3-aminoalkyl-4(3H)-quinazolinone compound” (Mitsubishi Chemical Industries Limited, priority 1984, dated 1987).
Counter-ions that a name gives are not always drawn.

Legend:
[1] = test system: calcium induced contraction of the isolated thoracic aorta in rats; assay: Calcium antagonistic activity: relaxation of calcium induced contraction of isolated thoracic aorta; assay type: cell-based, rat (male Wistar strain); details: spiral specimen of rat thoracic aorta, 80 mM potassium, 10 mM Ca++; relaxing activity; read-out: Minimum effective concentration
Experimental: Calcium antagonistic activity
Calcium antagonistic activity of the present compound was investigated by observing the effects on the calcium induced contraction of the isolated thoracic aorta in rats.
A piece of thoracic aorta was isolated from male Wistar strain rats weighing 350-450 g in order to prepare a spiral specimen. This specimen was suspended in a Krebs-Henseleit solution free from calcium. The contraction was evoked by an application of CaCl2 in the presence of 80 mM potassium so as to adjust the solution at a concentration of 10 mM Ca^++. The present compound to be tested was applied to the specimen which had been maximally contracted and was evaluated for its relaxing activity.

[2] = test system: blood flow of the circumflex branch of left coronary artery (dog); assay: Increasing activity of coronary blood flow in anesthetized dogs; assay type: in vivo, dog (mongrel); details: Canis lupus familiaris, 0.1 mg/kg iv, read-out: Increase rate of coronary blood flow
Experimental: Increasing activity of coronary blood flow
Male and female mongrel dogs weighing 8 to 17.5 kg were anesthetized with intravenous administration of sodium pentobarbital at a dosage of 30 mg/kg. Under artificial respiration the chest was opened on the left side at the level of the fourth intercostal space and the heart was exposed. The circumflex branch of left coronary artery just below the junction of the anterior descending branch of left coronary artery was isolated in a width of approximately 1 cm, and a flow probe was placed around this artery in order to measure the blood flow of the circumflex branch of left coronary artery by means of an electromagnetic flow meter. During the tests, systemic blood pressure was monitored, and data obtained from tests where the mean blood presure was less than 65 mmHg were excluded from the final data. The pharmaceutical compound to be tested was dissolved in physiological saline or 50% ethanol/50% physiological saline and the thus obtained solution was intravenously administered at a dosage of 1 ml/10 kg through a polyethylene catheter which had been provided within the left femoral vein. The increasing activity of the blood flow of the circumflex branch of left coronary artery was evaluated and expressed in terms of increase rate of the blood flow after the administration of the compound to that of before the administration of the compound.

[3] = Acute toxicity test (mouse, oral administration); details: in vivo, male ICR mice, fasted 18 hours
Experimental: Tests were made using groups each comprising five male ICR strain mice weighing 30 to 35 g and being kept under a fast for 18 hours. The compound to be tested was suspended in a 1% tragacanth solution. After the concentration of the suspensions was adjusted in a volume of 40 ml/kg, the compound was administered orally to the mouse.

[4] = test system: spontaneously hypertensive rats (SHR), average blood pressure; assay: Antihypertensive activity in spontaneously hypertensive rats; assay type: in vivo, rat (SHR); details: oral
Experimental: Antihypertensive activity
The compounds to be tested were administered orally to evaluate antihypertensive activity in spontaneously hypertensive rats (hereinafter SHR).
The average blood pressure of male SHR, 20 to 30 weeks old, was measured in a non-anestetised and non restraint state, through a catheter which had been chronically implanted into the abdominal aorta through the right fermoral artery, using an electromanometer. At the same time, the heart rate was measured by a tachometer triggered by the pulse pressure. The compound to be tested was suspended in a 1% tragacanth solution. After the concentration of the suspensions was adjusted in a volume of 5 ml/kg, the compound was administered orally to the SHR. The blood pressure and heart rate were measured 0.5, 1, 3, 6 and 24 hours after the administration.

acetylcolinesterase = details: Indian J. Pharm., 33, 80 (1971); cited from earlier work

Row | SMILES | minimal effective concentration [1] [µM] | change in vivo at 0.1 mg/kg [2] [%] | LD50 [3] [mg/kg] | other results
1 | CCN(CC)CCCn1c(Cc2cc(OC)ccc2OC)nc2ccccc2c1=O [Compound 14] | 1 | 42.7 | – | –
2 | COc1ccc(OC)c(Cc2nc3ccc(OC(C)C)cc3c(=O)n2CCN(C)CCc2ccc(OC)c(OC)c2)c1 [Compound 102] | 0.03 | 53.6 | 1000 | Increase rate of average blood pressure after administration, after 1 hour ([4]; 10 mg/kg): -11%; Increase rate of average blood pressure after administration, after 3 hours ([4]; 10 mg/kg): -2%
3 | COc1ccc(OC)c(Cc2nc3ccc(C)cc3c(=O)n2CCN2CCCC2)c1 [Compound 31] | 1 | 42.5 | 1000 | –
4 | CCOc1ccc2nc(Cc3cc(OC)ccc3OC)n(CCN(C)CCc3ccc(OC)c(OC)c3)c(=O)c2c1 [Compound 121] | 0.03 | – | – | –
5 | COc1ccc(OC)c(Cc2nc3ccc(OC(C)C)cc3c(=O)n2CCN(C)C)c1 [Compound 47] | 0.1 | 95.4 | 750 | Increase rate of average blood pressure after administration, after 1 hour ([4]; 10 mg/kg): -12%; Increase rate of average blood pressure after administration, after 3 hours ([4]; 10 mg/kg): -3%
6 | CCCCN(CCCC)CCCn1c(C)nc2ccc(Cl)cc2c1=O [2-methyl-3-(3-dibutylaminopropyl)-6-chloro-4(3H)-quinazolinone] | – | – | – | inhibitive activity of acetylcolinesterase (acetylcolinesterase): inhibitive activity of acetylcolinesterase
7 | COc1ccc(OC)c(Cc2nc3ccc(I)cc3c(=O)n2CCN(C)CCc2ccc(OC)c(OC)c2)c1 [Compound 116] | 0.03 | – | – | –
8 | COc1ccc(Cc2nc3ccc(OC(C)C)cc3c(=O)n2CCN(C)C)cc1 [Compound 50] | 0.3 | – | 700 | Increase rate of average blood pressure after administration, after 1 hour ([4]; 10 mg/kg): -17%; Increase rate of average blood pressure after administration, after 3 hours ([4]; 10 mg/kg): -7%
9 | COc1ccc(OC)c(Cc2nc3ccccc3c(=O)n2CCN2CCCC2)c1 [Compound 15] | 0.3 | 45.3 | – | –
10 | COc1ccc(OC)c(Cc2nc3ccccc3c(=O)n2CCN(C)CCc2ccc(OC)c(OC)c2)c1 [Compound 93] | 0.03 | – | – | –
11 | COc1ccc(Cc2nc3cc(OC)c(OC(C)C)cc3c(=O)n2CCN(C)C)cc1 [Compound 82] | – | – | 750 | Increase rate of average blood pressure after administration, after 1 hour ([4]; 10 mg/kg): -24%; Increase rate of average blood pressure after administration, after 3 hours ([4]; 10 mg/kg): -15%
12 | CCC(C)Oc1ccc2nc(Cc3cc(OC)ccc3OC)n(CCN(C)C)c(=O)c2c1 (stereo not shown) [Compound 63] | 0.3 | 77.3 | 1200 | –
13 | COc1ccc(OC)c(Cc2nc3ccc(C)cc3c(=O)n2CCN(C)CCc2ccc(OC)c(OC)c2)c1 [Compound 114] | 0.1 | – | – | –
14 | CCN(CC)CCn1c(Cc2ccccc2OCc2ccccc2)nc2ccccc2c1=O [Compound 19] | 0.3 | – | – | –
15 | CCN(CC)CCn1c(Cc2cc(OC)ccc2OC)nc2ccc(I)cc2c1=O [Compound 26] | 1 | – | – | –
16 | CCC(C)Oc1ccc2nc(Cc3cc(OC)ccc3OC)n(CCCN(C)C)c(=O)c2c1 (stereo not shown) [Compound 64] | 0.3 | 47.6 | – | –
17 | COc1ccc(OC)c(Cc2nc3ccc(OC(C)C)cc3c(=O)n2CCCN(C)C)c1 [Compound 30, 2-(2,5-Dimethoxyphenylmethyl)-3-(3-dimetylaminopropyl)-6-isopropoxy-4(3H)-quinazolinone maleate] | 0.3 | – | – | –
18 | CCN(CC)CCn1c(Cc2ccc(OCc3ccccc3)cc2)nc2ccccc2c1=O [Compound 20] | 0.3 | – | – | –
19 | COc1ccc(OC)c(Cc2nc3ccc(OC(C)C)cc3c(=O)n2CCCN(C)CCc2ccc(OC)c(OC)c2)c1 [Compound 103] | 0.1 | – | – | –
20 | COc1ccc([C@@H]2Sc3ccccc3N(CCN(C)C)C(=O)[C@@H]2OC(C)=O)cc1 [diltiazem, reference compound] | 0.3 | 91.2 | 650 | Increase rate of average blood pressure after administration, after 1 hour ([4]; 30 mg/kg): -8%; Increase rate of average blood pressure after administration, after 3 hours ([4]; 30 mg/kg): 0%; Increase rate of average blood pressure after administration, after 1 hour ([4]; 100 mg/kg): -28%; Increase rate of average blood pressure after administration, after 3 hours ([4]; 100 mg/kg): -14%
21 | CCN(CC)CCn1c(Cc2cc(OC)ccc2OC)nc2ccccc2c1=O [Compound 13] | 3 | 32.7 | 700 | –
